Results: the supplement of paper PMC8671470

system: BV-173; assay: cell viability (% survival relative to DMSO control, bortezomib = 0%); higher = less cytotoxic; conditions: 1 nM; 72 h
Method in brief: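 Fifteen myeloid leukaemia cell lines were exposed to compounds at 1, 10, 100, 1000 or 10000 nM in 384-well plates for 72 h at 37 °C and 5% CO2. Viability was read by CellTiter-Glo luminescence and normalised, with vehicle as 100% and a 10 µM positive control as 0%. Values are percent survival averaged over duplicates.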

Point of comparison: O=C(Oc1ccc([N+](=O)[O-])cc1)N1CCC(C(O)(c2ccc3c(c2)OCO3)c2ccc3c(c2)OCO3)CC1 [JZL184], cell viability 95.2%. Against it:
- Cn1cc(C[C@@H](N)C(=O)O)c2ccccc21 [Indoximod] — higher, 134%
- O=C1N[C@@H]2[C@@H](O)[C@@H](O)[C@H](O)[C@@H](CO)N2C1=O [Kifunensine] — lower, 95%
- CC(C)(CCCCCCCCCCC(C)(C)CC(=O)O)CC(=O)O [MEDICA 16] — higher, 105%
- CC(C)c1ccc2c(c1)c(SC(C)(C)C)c(CC(C)(C)C(=O)O)n2Cc1ccc(Cl)cc1 [MK-886] — higher, 121%
- O=C(CCl)N(CCCNC(=O)C(F)(F)F)c1ccc([N+](=O)[O-])cc1 [ML175] — higher, 122%
- CN(C)C(=N)NC(=N)N [Metformin] — higher, 107%
- Cl.OC[C@H]1NC[C@H](O)[C@@H](O)[C@H]1O [Migalastat] — higher, 97.1%
- OCCN1C[C@H](O)[C@@H](O)[C@H](O)[C@H]1CO [Miglitol] — lower, 90.6%
- CCCCCCCNC=O [N-Heptyl-Formamide] — higher, 112%
- CC(C)(F)C[C@H](N[C@@H](c1ccc(-c2ccc(S(C)(=O)=O)cc2)cc1)C(F)(F)F)C(=O)NC1(C#N)CC1 [Odanacatib] — lower, 85.1%
- CNC(=C[N+](=O)[O-])NCCSCc1ccc(CN(C)C)o1 [Ranitidine] — higher, 96.7%
- C#CCN[C@@H]1CCc2ccccc21 [Rasagiline] — lower, 92.1%
- NC(CCC(=O)NC(CSCc1ccc(Br)cc1)C(=O)NCC(=O)OC1CCCC1)C(=O)OC1CCCC1 (stereo not given) [S-para-Bromobenzylglutathione cyclopentyl diester] — higher, 96.5%
- COc1cc(C2Oc3cc(C4Oc5cc(O)cc(O)c5C(=O)C4O)ccc3OC2CO)ccc1O (stereo not given) [Silibinin] — lower, 90.9%
- Cn1c2cc(S(C)=O)sc2c2cnn(Cc3cccc(N)c3)c(=O)c21 (stereo not given) [TEPP-46] — higher, 108%
- CCCCCCCCCCCCCCOc1ccc(C(=O)O)o1 [TOFA] — higher, 110%
- CN1CC(=O)N2[C@H](c3ccc4c(c3)OCO4)c3[nH]c4ccccc4c3C[C@@H]2C1=O [Tadalafil] — higher, 95.5%
- Cl.NC1=CCCN1Cc1nc(O)nc(O)c1Cl [Tipiracil] — higher, 108%
- CCCC(CCC)C(=O)O [Valproic acid] — lower, 88.5%
- OCC(CO)N[C@H]1C[C@](O)(CO)[C@@H](O)[C@H](O)[C@H]1O [Voglibose] — higher, 113%

same assay, conditions: 10 nM; 72 h

Point of comparison: CC(C)(CCCCCCCCCCC(C)(C)CC(=O)O)CC(=O)O [MEDICA 16], cell viability 89.4%. Against it:
- Cn1cc(C[C@@H](N)C(=O)O)c2ccccc21 [Indoximod] — higher, 95.3%
- O=C(Oc1ccc([N+](=O)[O-])cc1)N1CCC(C(O)(c2ccc3c(c2)OCO3)c2ccc3c(c2)OCO3)CC1 [JZL184] — higher, 96.5%
- O=C1N[C@@H]2[C@@H](O)[C@@H](O)[C@H](O)[C@@H](CO)N2C1=O [Kifunensine] — higher, 106%
- CC(C)c1ccc2c(c1)c(SC(C)(C)C)c(CC(C)(C)C(=O)O)n2Cc1ccc(Cl)cc1 [MK-886] — higher, 89.6%
- O=C(CCl)N(CCCNC(=O)C(F)(F)F)c1ccc([N+](=O)[O-])cc1 [ML175] — higher, 99.9%
- CN(C)C(=N)NC(=N)N [Metformin] — higher, 90.3%
- Cl.OC[C@H]1NC[C@H](O)[C@@H](O)[C@H]1O [Migalastat] — higher, 102%
- OCCN1C[C@H](O)[C@@H](O)[C@H](O)[C@H]1CO [Miglitol] — higher, 110%
- CCCCCCCNC=O [N-Heptyl-Formamide] — higher, 98.3%
- CC(C)(F)C[C@H](N[C@@H](c1ccc(-c2ccc(S(C)(=O)=O)cc2)cc1)C(F)(F)F)C(=O)NC1(C#N)CC1 [Odanacatib] — higher, 104%
- CNC(=C[N+](=O)[O-])NCCSCc1ccc(CN(C)C)o1 [Ranitidine] — higher, 96.1%
- C#CCN[C@@H]1CCc2ccccc21 [Rasagiline] — higher, 104%
- NC(CCC(=O)NC(CSCc1ccc(Br)cc1)C(=O)NCC(=O)OC1CCCC1)C(=O)OC1CCCC1 (stereo not given) [S-para-Bromobenzylglutathione cyclopentyl diester] — lower, 88.3%
- COc1cc(C2Oc3cc(C4Oc5cc(O)cc(O)c5C(=O)C4O)ccc3OC2CO)ccc1O (stereo not given) [Silibinin] — higher, 93.5%
- Cn1c2cc(S(C)=O)sc2c2cnn(Cc3cccc(N)c3)c(=O)c21 (stereo not given) [TEPP-46] — lower, 84.1%
- CCCCCCCCCCCCCCOc1ccc(C(=O)O)o1 [TOFA] — higher, 104%
- CN1CC(=O)N2[C@H](c3ccc4c(c3)OCO4)c3[nH]c4ccccc4c3C[C@@H]2C1=O [Tadalafil] — lower, 87%
- Cl.NC1=CCCN1Cc1nc(O)nc(O)c1Cl [Tipiracil] — higher, 95.1%
- CCCC(CCC)C(=O)O [Valproic acid] — higher, 93.5%
- OCC(CO)N[C@H]1C[C@](O)(CO)[C@@H](O)[C@H](O)[C@H]1O [Voglibose] — higher, 112%

same assay, conditions: 100 nM; 72 h

Point of comparison: CNC(=C[N+](=O)[O-])NCCSCc1ccc(CN(C)C)o1 [Ranitidine], cell viability 105%. Against it:
- Cn1cc(C[C@@H](N)C(=O)O)c2ccccc21 [Indoximod] — lower, 90.6%
- O=C(Oc1ccc([N+](=O)[O-])cc1)N1CCC(C(O)(c2ccc3c(c2)OCO3)c2ccc3c(c2)OCO3)CC1 [JZL184] — lower, 90.7%
- O=C1N[C@@H]2[C@@H](O)[C@@H](O)[C@H](O)[C@@H](CO)N2C1=O [Kifunensine] — higher, 114%
- CC(C)(CCCCCCCCCCC(C)(C)CC(=O)O)CC(=O)O [MEDICA 16] — lower, 98.5%
- CC(C)c1ccc2c(c1)c(SC(C)(C)C)c(CC(C)(C)C(=O)O)n2Cc1ccc(Cl)cc1 [MK-886] — higher, 114%
- O=C(CCl)N(CCCNC(=O)C(F)(F)F)c1ccc([N+](=O)[O-])cc1 [ML175] — lower, 101%
- CN(C)C(=N)NC(=N)N [Metformin] — lower, 92%
- Cl.OC[C@H]1NC[C@H](O)[C@@H](O)[C@H]1O [Migalastat] — higher, 113%
- OCCN1C[C@H](O)[C@@H](O)[C@H](O)[C@H]1CO [Miglitol] — lower, 89.7%
- CCCCCCCNC=O [N-Heptyl-Formamide] — lower, 90.4%
- CC(C)(F)C[C@H](N[C@@H](c1ccc(-c2ccc(S(C)(=O)=O)cc2)cc1)C(F)(F)F)C(=O)NC1(C#N)CC1 [Odanacatib] — lower, 101%
- C#CCN[C@@H]1CCc2ccccc21 [Rasagiline] — higher, 111%
- NC(CCC(=O)NC(CSCc1ccc(Br)cc1)C(=O)NCC(=O)OC1CCCC1)C(=O)OC1CCCC1 (stereo not given) [S-para-Bromobenzylglutathione cyclopentyl diester] — lower, 97%
- COc1cc(C2Oc3cc(C4Oc5cc(O)cc(O)c5C(=O)C4O)ccc3OC2CO)ccc1O (stereo not given) [Silibinin] — higher, 110%
- Cn1c2cc(S(C)=O)sc2c2cnn(Cc3cccc(N)c3)c(=O)c21 (stereo not given) [TEPP-46] — lower, 102%
- CCCCCCCCCCCCCCOc1ccc(C(=O)O)o1 [TOFA] — lower, 101%
- CN1CC(=O)N2[C@H](c3ccc4c(c3)OCO4)c3[nH]c4ccccc4c3C[C@@H]2C1=O [Tadalafil] — lower, 89.6%
- Cl.NC1=CCCN1Cc1nc(O)nc(O)c1Cl [Tipiracil] — lower, 97.9%
- CCCC(CCC)C(=O)O [Valproic acid] — lower, 87.8%
- OCC(CO)N[C@H]1C[C@](O)(CO)[C@@H](O)[C@H](O)[C@H]1O [Voglibose] — lower, 99.3%

same assay, conditions: 1000 nM; 72 h

Point of comparison: CN(C)C(=N)NC(=N)N [Metformin], cell viability 100%. Against it:
- Cn1cc(C[C@@H](N)C(=O)O)c2ccccc21 [Indoximod] — lower, 84.7%
- O=C(Oc1ccc([N+](=O)[O-])cc1)N1CCC(C(O)(c2ccc3c(c2)OCO3)c2ccc3c(c2)OCO3)CC1 [JZL184] — lower, 92.9%
- O=C1N[C@@H]2[C@@H](O)[C@@H](O)[C@H](O)[C@@H](CO)N2C1=O [Kifunensine] — lower, 86.7%
- CC(C)(CCCCCCCCCCC(C)(C)CC(=O)O)CC(=O)O [MEDICA 16] — lower, 94.2%
- CC(C)c1ccc2c(c1)c(SC(C)(C)C)c(CC(C)(C)C(=O)O)n2Cc1ccc(Cl)cc1 [MK-886] — higher, 103%
- O=C(CCl)N(CCCNC(=O)C(F)(F)F)c1ccc([N+](=O)[O-])cc1 [ML175] — lower, -0.0318%
- Cl.OC[C@H]1NC[C@H](O)[C@@H](O)[C@H]1O [Migalastat] — higher, 105%
- OCCN1C[C@H](O)[C@@H](O)[C@H](O)[C@H]1CO [Miglitol] — lower, 94.6%
- CCCCCCCNC=O [N-Heptyl-Formamide] — higher, 123%
- CC(C)(F)C[C@H](N[C@@H](c1ccc(-c2ccc(S(C)(=O)=O)cc2)cc1)C(F)(F)F)C(=O)NC1(C#N)CC1 [Odanacatib] — lower, 88.7%
- CNC(=C[N+](=O)[O-])NCCSCc1ccc(CN(C)C)o1 [Ranitidine] — lower, 96.9%
- C#CCN[C@@H]1CCc2ccccc21 [Rasagiline] — lower, 93.6%
- NC(CCC(=O)NC(CSCc1ccc(Br)cc1)C(=O)NCC(=O)OC1CCCC1)C(=O)OC1CCCC1 (stereo not given) [S-para-Bromobenzylglutathione cyclopentyl diester] — lower, 77.1%
- COc1cc(C2Oc3cc(C4Oc5cc(O)cc(O)c5C(=O)C4O)ccc3OC2CO)ccc1O (stereo not given) [Silibinin] — lower, 95.2%
- Cn1c2cc(S(C)=O)sc2c2cnn(Cc3cccc(N)c3)c(=O)c21 (stereo not given) [TEPP-46] — higher, 106%
- CCCCCCCCCCCCCCOc1ccc(C(=O)O)o1 [TOFA] — lower, 90.1%
- CN1CC(=O)N2[C@H](c3ccc4c(c3)OCO4)c3[nH]c4ccccc4c3C[C@@H]2C1=O [Tadalafil] — lower, 96.8%
- Cl.NC1=CCCN1Cc1nc(O)nc(O)c1Cl [Tipiracil] — lower, 99.5%
- CCCC(CCC)C(=O)O [Valproic acid] — higher, 104%
- OCC(CO)N[C@H]1C[C@](O)(CO)[C@@H](O)[C@H](O)[C@H]1O [Voglibose] — lower, 93.8%

same assay, conditions: 10000 nM; 72 h

Point of comparison: NC(CCC(=O)NC(CSCc1ccc(Br)cc1)C(=O)NCC(=O)OC1CCCC1)C(=O)OC1CCCC1 (stereo not given) [S-para-Bromobenzylglutathione cyclopentyl diester], cell viability 28%. Against it:
- Cn1cc(C[C@@H](N)C(=O)O)c2ccccc21 [Indoximod] — higher, 100%
- O=C(Oc1ccc([N+](=O)[O-])cc1)N1CCC(C(O)(c2ccc3c(c2)OCO3)c2ccc3c(c2)OCO3)CC1 [JZL184] — higher, 69.4%
- O=C1N[C@@H]2[C@@H](O)[C@@H](O)[C@H](O)[C@@H](CO)N2C1=O [Kifunensine] — higher, 90.5%
- CC(C)(CCCCCCCCCCC(C)(C)CC(=O)O)CC(=O)O [MEDICA 16] — higher, 106%
- CC(C)c1ccc2c(c1)c(SC(C)(C)C)c(CC(C)(C)C(=O)O)n2Cc1ccc(Cl)cc1 [MK-886] — higher, 94.9%
- O=C(CCl)N(CCCNC(=O)C(F)(F)F)c1ccc([N+](=O)[O-])cc1 [ML175] — lower, -0.742%
- CN(C)C(=N)NC(=N)N [Metformin] — higher, 89.2%
- Cl.OC[C@H]1NC[C@H](O)[C@@H](O)[C@H]1O [Migalastat] — higher, 87.6%
- OCCN1C[C@H](O)[C@@H](O)[C@H](O)[C@H]1CO [Miglitol] — higher, 105%
- CCCCCCCNC=O [N-Heptyl-Formamide] — higher, 95.5%
- CC(C)(F)C[C@H](N[C@@H](c1ccc(-c2ccc(S(C)(=O)=O)cc2)cc1)C(F)(F)F)C(=O)NC1(C#N)CC1 [Odanacatib] — higher, 106%
- CNC(=C[N+](=O)[O-])NCCSCc1ccc(CN(C)C)o1 [Ranitidine] — higher, 108%
- C#CCN[C@@H]1CCc2ccccc21 [Rasagiline] — higher, 92.4%
- COc1cc(C2Oc3cc(C4Oc5cc(O)cc(O)c5C(=O)C4O)ccc3OC2CO)ccc1O (stereo not given) [Silibinin] — higher, 87.2%
- Cn1c2cc(S(C)=O)sc2c2cnn(Cc3cccc(N)c3)c(=O)c21 (stereo not given) [TEPP-46] — higher, 76.8%
- CCCCCCCCCCCCCCOc1ccc(C(=O)O)o1 [TOFA] — higher, 103%
- CN1CC(=O)N2[C@H](c3ccc4c(c3)OCO4)c3[nH]c4ccccc4c3C[C@@H]2C1=O [Tadalafil] — higher, 88.3%
- Cl.NC1=CCCN1Cc1nc(O)nc(O)c1Cl [Tipiracil] — higher, 106%
- CCCC(CCC)C(=O)O [Valproic acid] — higher, 90.6%
- OCC(CO)N[C@H]1C[C@](O)(CO)[C@@H](O)[C@H](O)[C@H]1O [Voglibose] — higher, 102%
